Measured values reported in the OligoGym collection.
After the bases stand the sugars from the 5' end (letter, count) and the backbone: PS all phosphorothioate, else s phosphorothioate and o phosphodiester by linkage. Methylation of C is not given here. k = constrained ethyl (cEt); d = 2'-deoxy (DNA)

target: IRF4; conditions: ASO, SK-MEL-28, 4 µM

With GGAATCTTGGCAGGGA (sugars k3 d10 k3, PS) as the sequence, how does the target mRNA inhibition read?
The target mRNA inhibition was 48%.

Which target mRNA inhibition does the source give for GGACATATTTGCTTTG (sugars k3 d10 k3, PS) here?
Its target mRNA inhibition is 32%.

How did the target mRNA inhibition turn out when GGAGAGGCTGAGATAA (sugars k3 d10 k3, PS) was run?
The target mRNA inhibition was 29%.

Which target mRNA inhibition does the source give for GGAGATATTAATTACT (sugars k3 d10 k3, PS) here?
The target mRNA inhibition was 50%.

How did the target mRNA inhibition turn out when GGAGATCCTTTTTATT (sugars k3 d10 k3, PS) was run?
The target mRNA inhibition was 32%.

How did the target mRNA inhibition turn out when GGAGGAGGGTTGGCCT (sugars k3 d10 k3, PS) was run?
The target mRNA inhibition was 1%.

With GGAGTAATAGTAAATA (sugars k3 d10 k3, PS) as the sequence, how does the target mRNA inhibition read?
Its target mRNA inhibition is 36%.

How did the target mRNA inhibition turn out when GGATGGAACAGTAACT (sugars k3 d10 k3, PS) was run?
The target mRNA inhibition was 52%.

For GGATTCTATAAATAGA (sugars k3 d10 k3, PS), which target mRNA inhibition is on record?
The target mRNA inhibition was 25%.

How did the target mRNA inhibition turn out when GGCAAATTAATGCTTC (sugars k3 d10 k3, PS) was run?
The target mRNA inhibition was 76%.

With GGCAACCTGCATTTGC (sugars k4 d8 k4, PS) as the sequence, how does the target mRNA inhibition read?
Its target mRNA inhibition is -12%.

For GGCAAGATGAGAATTC (sugars k3 d10 k3, PS), which target mRNA inhibition is on record?
Its target mRNA inhibition is 25%.

Which target mRNA inhibition does the source give for GGCAAGTTTTCTCTGT (sugars k3 d10 k3, PS) here?
Its target mRNA inhibition is 36%.

GGCACGGCTTCAGTCA (sugars k3 d10 k3, PS) was tested. Which target mRNA inhibition did it give?
The target mRNA inhibition was 75%.

How did the target mRNA inhibition turn out when GGCCAACGACTCCACA (sugars k3 d10 k3, PS) was run?
The target mRNA inhibition was 23%.

For GGCCAATGATTTTGTT (sugars k3 d10 k3, PS), which target mRNA inhibition is on record?
Its target mRNA inhibition is 6%.

With GGCCATCCAGAGGACC (sugars k3 d10 k3, PS) as the sequence, how does the target mRNA inhibition read?
Its target mRNA inhibition is 25%.

How did the target mRNA inhibition turn out when GGCCCCAGCCAAGAAG (sugars k3 d10 k3, PS) was run?
Its target mRNA inhibition is 8%.

For GGCCGATCATCAACTT (sugars k3 d10 k3, PS), which target mRNA inhibition is on record?
The target mRNA inhibition was 7%.

Which target mRNA inhibition does the source give for GGCCTTCCTGGCGGAG (sugars k3 d10 k3, PS) here?
The target mRNA inhibition was 22%.

Which target mRNA inhibition does the source give for GGCGACCCCGTCGCAG (sugars k3 d10 k3, PS) here?
Its target mRNA inhibition is 30%.

GGCGACTAACTCTCCT (sugars k3 d10 k3, PS) was tested. Which target mRNA inhibition did it give?
Its target mRNA inhibition is 63%.

GGCTAGGCCACCGCAC (sugars k3 d10 k3, PS) was tested. Which target mRNA inhibition did it give?
The target mRNA inhibition was 28%.

Which target mRNA inhibition does the source give for GGCTGAGATAGGAAGC (sugars k3 d10 k3, PS) here?
Its target mRNA inhibition is 36%.

How did the target mRNA inhibition turn out when GGGAACAGATAGTTAA (sugars k3 d10 k3, PS) was run?
The target mRNA inhibition was 26%.

Which target mRNA inhibition does the source give for GGGAAGTGGACCCCAT (sugars k3 d10 k3, PS) here?
Its target mRNA inhibition is 9%.

GGGACCCACGGACGGA (sugars k3 d10 k3, PS) was tested. Which target mRNA inhibition did it give?
The target mRNA inhibition was 9%.

How did the target mRNA inhibition turn out when GGGAGATCCGGCAGCC (sugars k3 d10 k3, PS) was run?
Its target mRNA inhibition is -10%.

How did the target mRNA inhibition turn out when GGGCAACAGTTCAAGT (sugars k3 d10 k3, PS) was run?
Its target mRNA inhibition is 36%.

How did the target mRNA inhibition turn out when GGGCAAGATGAGAATT (sugars k3 d10 k3, PS) was run?
The target mRNA inhibition was 0%.

For GGGCAATGGAGTCTCG (sugars k3 d10 k3, PS), which target mRNA inhibition is on record?
Its target mRNA inhibition is 24%.

For GGGCAGTCAATTGGAC (sugars k3 d10 k3, PS), which target mRNA inhibition is on record?
Its target mRNA inhibition is 25%.

With GGGCATCCTCAGTTAC (sugars k3 d10 k3, PS) as the sequence, how does the target mRNA inhibition read?
The target mRNA inhibition was 33%.

Which target mRNA inhibition does the source give for GGGCATGTAAAACATA (sugars k3 d10 k3, PS) here?
The target mRNA inhibition was 23%.

With GGGCCCGTCCCAGTAG (sugars k3 d10 k3, PS) as the sequence, how does the target mRNA inhibition read?
Its target mRNA inhibition is 20%.

GGGCGACGACAGCTGC (sugars k3 d10 k3, PS) was tested. Which target mRNA inhibition did it give?
The target mRNA inhibition was 32%.

How did the target mRNA inhibition turn out when GGGTAAAGGAGTGCAG (sugars k3 d10 k3, PS) was run?
Its target mRNA inhibition is 19%.

With GGGTCCTACCTGCTGG (sugars k3 d10 k3, PS) as the sequence, how does the target mRNA inhibition read?
Its target mRNA inhibition is 36%.

Which target mRNA inhibition does the source give for GGGTTAAAGATGTTAC (sugars k3 d10 k3, PS) here?
Its target mRNA inhibition is 50%.

GGGTTACGCTTATTTT (sugars k3 d10 k3, PS) was tested. Which target mRNA inhibition did it give?
Its target mRNA inhibition is 65%.

GGTAATTTAGGCCAAT (sugars k3 d10 k3, PS) was tested. Which target mRNA inhibition did it give?
Its target mRNA inhibition is 35%.

GGTACATGGCAGTGGA (sugars k3 d10 k3, PS) was tested. Which target mRNA inhibition did it give?
Its target mRNA inhibition is 87%.

How did the target mRNA inhibition turn out when GGTATACTTAAGCAAG (sugars k3 d10 k3, PS) was run?
The target mRNA inhibition was 68%.

How did the target mRNA inhibition turn out when GGTGAGCACCGCGCCG (sugars k3 d10 k3, PS) was run?
Its target mRNA inhibition is -8%.

With GGTGTAACTTTTACCT (sugars k3 d10 k3, PS) as the sequence, how does the target mRNA inhibition read?
Its target mRNA inhibition is 11%.

For GGTTAAATATTCTTCA (sugars k3 d10 k3, PS), which target mRNA inhibition is on record?
The target mRNA inhibition was 48%.

GGTTACTAATTCCATA (sugars k3 d10 k3, PS) was tested. Which target mRNA inhibition did it give?
Its target mRNA inhibition is 56%.

For GTAAACACATCACTTG (sugars k3 d10 k3, PS), which target mRNA inhibition is on record?
The target mRNA inhibition was 51%.

How did the target mRNA inhibition turn out when GTAAACTTGGCTGTGG (sugars k3 d10 k3, PS) was run?
Its target mRNA inhibition is 18%.

Which target mRNA inhibition does the source give for GTAAATATCCTGTAGT (sugars k3 d10 k3, PS) here?
The target mRNA inhibition was 33%.

How did the target mRNA inhibition turn out when GTAACTAACTCAAAAG (sugars k3 d10 k3, PS) was run?
The target mRNA inhibition was -1%.

Which target mRNA inhibition does the source give for GTAATGTAGGGATACA (sugars k3 d10 k3, PS) here?
Its target mRNA inhibition is 48%.

For GTACACAAGACAAATC (sugars k3 d10 k3, PS), which target mRNA inhibition is on record?
The target mRNA inhibition was 21%.

With GTACACCTCTTCACTA (sugars k3 d10 k3, PS) as the sequence, how does the target mRNA inhibition read?
Its target mRNA inhibition is 7%.

GTACATCCTGAAGCCA (sugars k3 d10 k3, PS) was tested. Which target mRNA inhibition did it give?
Its target mRNA inhibition is 26%.

GTAGATCCTGCTCTGG (sugars k3 d10 k3, PS) was tested. Which target mRNA inhibition did it give?
The target mRNA inhibition was 45%.

GTAGTCCTGCTTGCCC (sugars k3 d10 k3, PS) was tested. Which target mRNA inhibition did it give?
Its target mRNA inhibition is 44%.

How did the target mRNA inhibition turn out when GTAGTCCTGCTTGCCC (sugars k4 d8 k4, PS) was run?
Its target mRNA inhibition is 11%.
